This note sets out measurements from patent US20210170035A1, “METHOD OF TREATING CANCER BY TARGETING MYELOID-DERIVED SUPPRESSOR CELLS” (priority 2016, published 2021).

In assay [1] the test system is TAMs/MDSCs. Nature of the assay: Nitric oxide assay (Greiss reagent) after in vitro TAMs/MDSCs screening. In kind it is cell-based, mouse. The procedure: (§1) 10 million 4T1 cells in 300 μL PBS were injected into the peritoneal cavity. Peritoneal ascites were collected between day 7 and day 10 by peritoneal lavage. […] Cells were counted and ready for flow cytometry staining and in vitro screening.
(§2) Different concentrations of screening drugs listed in Table 2 were dissolved in the same medium and were added to each well containing 0.5 millions of cells in 300 μL medium. Wells containing 0.5 million cells in 300 μL medium without addition of drugs were kept as untreated control. Three extra wells were charged with 300 μL medium without cells and drugs to be kept as background control. […] At the end of incubation, supernatant was collected for IL-10 ELISA and nitric oxide assay. Cells were washed twice with 300 μL PBS, and were then ready for the arginase assay.
Nitric oxide production was measured with Greiss reagent as reported in Je-In Youn, Srinivas Nagaraj, Michelle Collazo, and Dmitry I. Gabrilovich, Subsets of Myeloid-Derived Suppressor Cells in Tumor Bearing Mice′, J Immunol. […] Briefly, after in vitro incubation of TAMs/MDSCs with different drugs, 50 μL of supernatant from each well was transferred into a 96-well plat bottom clear plate. 20 μL of Greiss reagent and 30 μL of DI water were added to each well with 50 μL of supernatant. The reaction solution was kept in the dark at room temperature for 30 min prior to a plate reader measurement. The absorbance at 548 nm is correlated to concentration of nitric oxide produced by TAMs/MDSCs. Results are shown in FIG. 9, FIG. 10, FIG. 11 and FIG. 14.

Assay [2] has as its system TAMs/MDSCs. Nature of the assay: Arginase assay after in vitro TAMs/MDSCs screening. In kind it is cell-based, mouse. On the procedure: as §1, §2
Briefly, after in vitro incubation of isolated TAMs/MDSCs with different drugs in 96 well plates, cells were washed twice with 300 μL PBS. […] Subsequently, 50 μL of the lysate solutions were transferred to a new V-shape 96 well plate. 50 μL of arginase activation solution (10 mM MnCl2/50 mM Tris.Cl (pH 7.5)) were added into the cell lysate. The enzyme was activated by heating for 10 min at 56° C. Arginine hydrolysis was conducted by incubating 25 μL of the activated solution with 25 μL of arginase substrate solution (0.5 M L-arginine (pH 9.7)) at 37° C. for 60 min with mild shaking. After cooling to room temperature, 10 μL of the reaction solution was then diluted into 90 μL of PBS. 10 μL of this diluted solution was transferred to a 96 well flat bottom clear plate. 200 μL of urea reagents were added to each well. After incubation in the dark at room temperature for 10 min, the urea concentration was measured at 520 nm by plate reader.

Assay [3] deals with TAMs/MDSCs. Nature of the assay: IL-10 ELISA assay after in vitro TAMs/MDSCs screening. It counts as cell-based, mouse. The following applies: co-culture with drug; absorbance at 492 nm. On the procedure: as §1
Cells isolated from the peritoneal model were re-suspended in completed RPMI 1640 medium supplemented with 10 ng/mL mouse GM-CSF and seeded into 96 well plates. Different concentrations of screening drugs listed in Table 2 were dissolved in the same medium and were added to each well containing 0.5 millions of cells in 300 μL medium. Wells containing 0.5 million cells in 300 μL medium without addition of drugs were kept as untreated control. Three extra wells were charged with 300 μL medium without cells and drugs to be kept as background control. Cells were then incubated at 37° C. in a humidified 95% air 5% CO2 atmosphere for 24 hours to 48 hours. At the end of incubation, supernatant was collected for IL-10 ELISA and nitric oxide assay. Cells were washed twice with 300 μL PBS, and were then ready for the arginase assay.
IL-10 production by TAMs/MDSCs after in vitro incubation with different compounds was determined by ELISA assay following the protocol provided with the Mouse IL-10 DuoSet ELISA by R&D Systems. Briefly, a high affinity 96-well plate was coated with 100 μL of diluted capture antibody per well with the working concentration of 4 μg/mL in PBS without carrier protein. The plate was sealed, and incubated overnight at room temperature. Each well was aspirated, and washed three times with 400 μL of wash buffer (0.05% Tween®20 in PBS, pH 7.2-7.4) using a squirt bottle. After the last wash, remaining wash buffer was removed by inverting the plate and blotting it against clean paper towels. The plates were blocked by adding 300 μL of reagent diluent (1% BSA in PBS, pH 7.2-7.4) to each well, and incubated at room temperature for 1 hour. Aspiration/wash was repeated three times in the same manner as previously described. The plates were ready for sample addition. 100 μL of sample supernatant from TAMs/MDSCs in vitro screening were added to each well. The plate was covered with an adhesive strip and incubated for 2 hours at room temperature. The previously mentioned aspiration/wash procedure was repeated three times. 100 μL of the detection antibody with the concentration of 300 ng/mL in reagent diluent was added to each well. The plate was covered with a new adhesive strip and incubated for 2 hours at room temperature. The previously mentioned aspiration/wash procedure was repeated three times. 100 μL of working dilution of streptavidin-HRP (1 to 40 dilution in reagent dilute) was added to each well. The plate was covered and incubated for 20 minutes at room temperature in dark. The previously mentioned aspiration/wash procedure was repeated three times. 200 μL of substrate solution (one bag of silver and golden tablets of OPD in 20 mL of DI water) was added to each well. The plate was incubated for 20 minutes at room temperature in dark. 50 μL of stop solution (3M HCl) was added to each well. The plate was gently tapped to ensure thorough mixing. The IL-10 concentration was proportional to the optical density determined by a microplate reader at 492 nm.
Background: ELISA stands for enzyme-linked immunosorbent assay.

For the next assay, the system named is human MDSCs. Nature of the assay: IL-10 production by in vitro induced human MDSCs. In kind it is cell-based. The following applies: cultured with drugs for 2 days. The procedure: Human PBMCs from healthy donor were isolated by density gradient centrifugation following standard procedure: […]
Blood was dilute blood with PBS (1:2 dilutions). 15 ml of Ficoll was transferred to a 50 ml tube. 35 ml of diluted blood was carefully placed over the Ficoll medium. The tube was centrifuged at 400 g for 30 min, at 24° C. without brake. After the centrifuge stoped, the tube was carefully removed from the centrifuge while not disturbing the layering. The PBMCs were carefully remove from the tube and transferred to a new 50 mL conical tube. Isolated PBMCs were washed with PBS and centrifuged at 300 g for 10 min. The supernatant was decanted. The pellet was washed once again in PBS and centrifuged at 200 g for 15 min. The isolated PBMCs were counted with the hemocytometer.
Isolated PBMCs were further purified by adhesion in serum free medium for 4 hours at 37° C. at a density of 3×10^6 cell/ml. After removing the suspension cells, adhered PBMCs were cultured in completed RPMI-1640 supplied with 10 ng/ml of IL-6 and GM-CSF for 7 days. Human MDSCs were then sorted by flow as CD33+ cells. Normal human macrophages were differentiated by co-culture PBMCs with completed RPMI-1640 medium for 7 days.
Human MDSCs were cultured with selected drugs for 2 days. The IL-10 production by MDSCs was measured and plotted vs drug concentrations.

Where [4] appears, read: co-culture with drug, absorbance at 548 nm.
Setting [5] is: co-culture with drug, absorbance at 520 nm.

Where two headings read alike, the source gives them in different places.

`CC1CCN=C(N)S1` (stereo not drawn) [AMT]: the “nitric oxide production by TAMs/MDSCs in vitro” value in the assay on TAMs/MDSCs [1] (setting [4]) is reported as “efficiently decrease nitric oxide production”.
As to `NC(=O)c1cnc(NCCc2ccc(O)c(Cl)c2)nc1NCc1ccccc1` [AS1517499], the “arginase production by TAMs/MDSCs in vitro” value in the assay on TAMs/MDSCs [2] (setting [5]) is on record as “efficiently decrease arginase production”. Moreover, the “IL-10 production by TAMs/MDSCs in vitro” value with TAMs/MDSCs [3] is “efficiently decrease IL-10 production”. Also, the “nitric oxide production by TAMs/MDSCs in vitro” value in the assay with TAMs/MDSCs [1] (setting [4]) was “efficiently decrease nitric oxide production”.
With `Cn1c(=O)n(-c2ccc(C(C)(C)C#N)cc2)c2c3cc(-c4cnc5ccccc5c4)ccc3ncc21` [BEZ235], the “arginase production by TAMs/MDSCs in vitro” value in the assay on TAMs/MDSCs [2] (setting [5]) is reported as “efficiently decrease arginase production”. The “IL-10 production by TAMs/MDSCs in vitro” value in the assay with TAMs/MDSCs [3] is on record as “efficiently decrease IL-10 production”. Moreover, the “nitric oxide production by TAMs/MDSCs in vitro” value in the assay on TAMs/MDSCs [1] (setting [4]) is listed as “efficiently decrease nitric oxide production”. Besides, the “IL-10 production by human MDSCs” value in the assay on human MDSCs is “decreasing IL-10 production”.
`Cc1ccc(-n2nc(C(C)(C)C)cc2NC(=O)Nc2ccc(OCCN3CCOCC3)c3ccccc23)cc1` [BIRB796]: the “arginase production by TAMs/MDSCs in vitro” value with TAMs/MDSCs [2] (setting [5]) is “efficiently decrease arginase production”. Moreover, in the assay with TAMs/MDSCs [3], the “IL-10 production by TAMs/MDSCs in vitro” value was “efficiently decrease IL-10 production”. Also, the “nitric oxide production by TAMs/MDSCs in vitro” value in the assay with TAMs/MDSCs [1] (setting [4]) is given as “efficiently decrease nitric oxide production”.
As for `CCCCNc1nc(N)c2[nH]c(=O)n(Cc3ccc(C(=O)NCC(=O)NCCCNCCCCNCCCN)cc3)c2n1` [CL307], in the assay on TAMs/MDSCs [2] (setting [5]), the “arginase production by TAMs/MDSCs in vitro” value was “efficiently decrease arginase production”.
Consider `Cc1c(CN2CCN(C(=O)[C@H](C)O)CC2)sc2c(N3CCOCC3)nc(-c3cnc(N)nc3)nc12` [GDC-0980], for which the “arginase production by TAMs/MDSCs in vitro” value in the assay on TAMs/MDSCs [2] (setting [5]) is listed as “best candidate that can efficiently decrease arginase”. The “IL-10 production by TAMs/MDSCs in vitro” value in the assay with TAMs/MDSCs [3] is given as “best candidate that can efficiently decrease IL-10”. Moreover, the “nitric oxide production by TAMs/MDSCs in vitro” value with TAMs/MDSCs [1] (setting [4]) is on record as “best candidate that can efficiently decrease nitric oxide”. Besides, the “IL-10 production by human MDSCs” value in the assay on human MDSCs is “decreasing IL-10 production”.
With `CO[C@H]1C[C@@H]2CC[C@@H](C)[C@@](O)(O2)C(=O)C(=O)N2CCCC[C@H]2C(=O)O[C@H]([C@H](C)C[C@@H]2CC[C@@H](OCCO)[C@H](OC)C2)CC(=O)[C@H](C)/C=C(\C)[C@@H](O)[C@@H](OC)C(=O)[C@H](C)C[C@H](C)/C=C/C=C/C=C/1C` [everolimus], the “nitric oxide production by TAMs/MDSCs in vitro” value in the assay with TAMs/MDSCs [1] (setting [4]) was “efficiently decrease nitric oxide production”.
In the case of `Nc1cccc2c1CN(C1CCC(=O)NC1=O)C2=O` (stereo not drawn) [lenalidomide], the “IL-10 production by TAMs/MDSCs in vitro” value in the assay on TAMs/MDSCs [3] is on record as “efficiently decrease IL-10 production”.
Regarding `CN(Cc1cnc2nc(N)nc(N)c2n1)c1ccc(C(=O)N[C@@H](CCC(=O)O)C(=O)O)cc1` [methotrexate], the “nitric oxide production by TAMs/MDSCs in vitro” value with TAMs/MDSCs [1] (setting [4]) was “efficiently decrease nitric oxide production”.
Turning to `CC[C@H](C)[C@H](NC(=O)[C@H]1CCCCN1C)C(=O)N(COC(=O)CC(C)C)[C@H](C[C@@H](OC(C)=O)c1nc(C(=O)N[C@@H](Cc2ccc(C)cc2)C[C@H](C)C(=O)O)cs1)C(C)C` [tubulysin], the “arginase production by TAMs/MDSCs in vitro” value in the assay with TAMs/MDSCs [2] is “efficiently decrease arginase production”. Further, the “IL-10 production by TAMs/MDSCs in vitro” value in the assay on TAMs/MDSCs [3] was “efficiently decrease IL-10 production”. Moreover, in the assay with TAMs/MDSCs [1], the “nitric oxide production by TAMs/MDSCs in vitro” value was “efficiently decrease nitric oxide production”. The “IL-10 production by human MDSCs” value in the assay on human MDSCs was “decreasing IL-10 production”.
With `CC[C@]1(O)C[C@@H]2CN(CCc3c([nH]c4ccccc34)[C@@](C(=O)OC)(c3cc4c(cc3OC)N(C)[C@H]3[C@@](O)(C(=O)OC)[C@H](OC(C)=O)[C@]5(CC)C=CCN6CC[C@]43[C@@H]65)C2)C1` [vinblastine], the “IL-10 production by human MDSCs” value in the assay on human MDSCs is listed as “decreasing IL-10 production”.
